Test results: article PMC10285260, “Processive kinetics in the three-step lanosterol 14α-demethylation reaction catalyzed by human cytochrome P450 51A1” (The Journal of Biological Chemistry, 2023)
pKd: −log10 of the molar value. “And” between values parts separate entries of the source, which are not always exact repeats. Equal values may be shown once.

Tests used:
human P450 51A1 = biological target: T1, human P450 51A1 (Homo sapiens, UniProt Q16850); assay: Single-turnover rapid-quench kinetics of [3-3H]-dihydrolanosterol oxidation (radio-HPLC); format: biochemical; design: made in house; host or cells: Escherichia coli
T1 sequence (Q16850 1-509): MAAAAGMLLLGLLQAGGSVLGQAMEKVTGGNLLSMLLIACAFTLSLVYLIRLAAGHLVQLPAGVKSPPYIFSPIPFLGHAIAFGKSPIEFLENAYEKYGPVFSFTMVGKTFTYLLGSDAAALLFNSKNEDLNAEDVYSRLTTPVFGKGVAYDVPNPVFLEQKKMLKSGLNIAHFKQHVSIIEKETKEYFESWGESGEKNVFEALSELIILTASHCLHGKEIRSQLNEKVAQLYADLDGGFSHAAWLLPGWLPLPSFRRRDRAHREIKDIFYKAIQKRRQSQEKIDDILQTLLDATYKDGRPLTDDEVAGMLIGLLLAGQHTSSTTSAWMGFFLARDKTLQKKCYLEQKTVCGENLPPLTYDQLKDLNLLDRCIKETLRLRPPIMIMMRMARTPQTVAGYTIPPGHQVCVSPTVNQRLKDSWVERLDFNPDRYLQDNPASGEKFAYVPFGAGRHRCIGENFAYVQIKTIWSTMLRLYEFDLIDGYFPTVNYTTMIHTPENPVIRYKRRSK
Method: All products were separated and quantified by radio-HPLC (Fig. S24).
Samples (held at 4 °C) were injected (45 μl) onto a Nova-Pak 3.9 mm × 150 mm (4 μm) octadecylsilane (C18) HPLC column (held at 23 °C). The products were separated at a flow rate of 1.0 ml min^−1 using an isocratic mobile phase composed of CH3CN (only) as was done for the LC-UV assays (above). The eluate from the column was mixed (1:2, v-v) with FlowLogic U scintillation cocktail, and radioactivity (^3H) was detected on a β-RAM Model 5 system (IN/US, LabLogic) (Fig. S24). Product formation was assessed as the relative contribution of each peak (in CPM) to the summed peak area of substrate and product(s).
The single-turnover experiments were performed using a KinTek rapid quench-flow apparatus (KinTek). This machine functions by forcing equal volumes (∼19 μl) of two separate solutions into a central mixing chamber, where the components are allowed to incubate for a predetermined period of time before an excess volume of quench solution (∼160 μl) stops the reaction and expels the mixture from the apparatus. […] After the predetermined incubation period, the reaction (37 °C) was quenched with HCl (1 M), and the mixture (∼200 μl) was collected into vials. The products of five identical reactions (time points) were combined and were extracted into CH2Cl2 (5 ml). An aliquot (4 ml) of the lower (organic) layer was removed into a fresh vial, and the extraction was repeated to maximize sample recovery. The pooled organic fraction (∼8 ml) was brought to dryness under a stream of N2 gas, and the residue was redissolved in 60 μl of CH3OH and transferred to LC vials for analysis.

[1] = system: rat liver microsomal systems; design: method as in PMID 3514778; details: rat liver microsomes fortified with cyanide, 2 h; cited from earlier work
[2] = Estimation of Kd for HPCD-dihydrolanosterol complex (OD450 light scattering); format: physicochemical; details: pH 7.4, 2% C2H5OH, 23 °C, 16 h; two assays
[3] = time 0.05 s, start 7 µM dihydrolanosterol

Structure (SMILES) | concentration in single-turnover reaction (human P450 51A1; [3]) | concentration in single-turnover reaction (human P450 51A1; time 0.1 s) | concentration in single-turnover reaction (human P450 51A1; time 0.15 s) | concentration in single-turnover reaction (human P450 51A1; time 0.2 s) | concentration in single-turnover reaction (human P450 51A1; time 0.3 s) | concentration in single-turnover reaction (human P450 51A1; time 0.4 s) | concentration in single-turnover reaction (human P450 51A1; time 0.6 s) | concentration in single-turnover reaction (human P450 51A1; time 0.8 s) | concentration in single-turnover reaction (human P450 51A1; time 1 s) | concentration in single-turnover reaction (human P450 51A1; time 1.2 s) | concentration in single-turnover reaction (human P450 51A1; time 1.6 s) | concentration in single-turnover reaction (human P450 51A1; time 2 s) | concentration in single-turnover reaction (human P450 51A1; time 3 s) | concentration in single-turnover reaction (human P450 51A1; time 4 s) | concentration in single-turnover reaction (human P450 51A1; time 7 s) | accumulation, yield [1] | other results
CC(C)CCCC(C)[C@H]1CC[C@@]2(CO)C3=C(CC[C@]12C)[C@@]1(C)CC[C@H](O)C(C)(C)C1CC3 (stereo partly drawn) [14α-CH2OH dihydrolanosterol, 24,25-dihydro-14α-CH2OH lanosterol] | 2.2428 µM | 3.1584 µM | 2.7482 µM | 2.961 µM | 2.3331 µM | 1.9978 µM | 1.1711 µM | 0.9849 µM | 0.4431 µM | 0 µM | 0 µM | 0 µM | 0 µM | 0 µM | 0 µM | ~3% | 
CC(C)CCCC(C)[C@H]1CC[C@@]2(C=O)C3=C(CC[C@]12C)[C@@]1(C)CC[C@H](O)C(C)(C)C1CC3 (stereo partly drawn) [14α-CHO dihydrolanosterol, 24,25-dihydro-14α-formyl lanosterol] | 0 µM | 0.8505 µM | 1.1396 µM | 1.6401 µM | 1.848 µM | 1.8837 µM | 1.7976 µM | 1.4126 µM | 1.4476 µM | 1.3349 µM | 0.8218 µM | 0.7105 µM | 0 µM | 0 µM | 0 µM | ~3% | 
CC(C)CCCC(C)[C@H]1CC[C@@]2(C)C3=C(CC[C@]12C)[C@@]1(C)CC[C@H](O)C(C)(C)C1CC3 (stereo partly drawn) [dihydrolanosterol, 24,25-dihydrolanosterol] | 4.7572 µM | 2.9911 µM | 2.8308 µM | 1.974 µM | 2.0671 µM | 1.9166 µM | 1.5253 µM | 1.5841 µM | 1.0563 µM | 1.1711 µM | 1.3601 µM | 1.0864 µM | 1.1137 µM | 0.3647 µM | 0 µM |  | pKd [2]: 2.19 and 2.17; kobs/Kd (human P450 51A1; first step, 7 s^−1/0.23 μM): 3e+07 M⁻¹ s⁻¹; fraction of initial material persisting until > 4 s (human P450 51A1; single turnover): ~20%; time in which the reaction was completed (human P450 51A1; single turnover): 7 s; time of 50% decrease of substrate concentration (human P450 51A1; single turnover): 0.10 s; first-order exponential decay rate of substrate concentration (human P450 51A1; single turnover, 37 °C): 8.7 s⁻¹; apparent rate of overall oxidation to dihydro FF-MAS, single exponential fit (human P450 51A1; single turnover, even with the lag): 0.8 s⁻¹
